Measured values reported in patent US11160881B2, “Dendrimer compositions for use in angiography” (The Johns Hopkins University, priority 2017, dated 2021).

Test system: leaky retinal blood vessels
Assay: Fundus fluorescence angiogram imaging in lipid injected rat CNV model
Assay type: in vivo, brown Norway rats
Details: 5 mg/kg, imaging on day 21 after lipid injection, 488 filter
Description: White arrows indicate precise location of retinal leakage identified by D-FITC nanoparticles.
Dendrimer fluorescent probes were investigated for their application in longitudinal imaging of retinal inflammation and oxidative stress. […] Lipid was injected in brown Norway rats via subretinal injection at day 0 and the fluorescence angiogram imaging was performed on day 21. The rats were anesthetized and administered with sodium fluorescein or D-FITC (5 mg/kg) and the rats were imaged under Micron-3 fundus microscope using a 488 filter at different time points (10 mins, 1 hr and 4 hrs). […] Free FITC perfuses and clears from the retina quickly within 1 hr. At early time points (10 mins) post injection free FITC leaked from the retinal blood vessels (FIG. 2, white arrows) in the areas of inflammation causing fluorescence background thereby making in unclear the exact location of the leaky blood vessels.

O=C1OC2(c3ccc(O)cc3Oc3cc(O)ccc32)c2ccccc21 [free FITC, sodium fluorescein]
time to clearance from the retina: ≤ 1 h
